PubChem BioAssay AID651650 (Sanford-Burnham Center for Chemical Genomics, 2012)
The source made the active and inactive calls.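 The calls were made as follows: active = mean IC50 below 20 µM in each of the two panels, so potent in both; inactive = the rest.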

Target: Neuropilin-1 (Homo sapiens) (UniProt O14786)
Experiment: NRP-1 b1b2 CendR peptide binding inhibitors, dose response, biochemical, FP and AlphaScreen panel (AID 651650)
Settings: NRP-1 b1b2 / RPARPAR peptide binding, FP or AlphaScreen
[1] = AlphaScreen, run 1, individual panel run IC50
[2] = FP, run 1, individual panel run IC50
[3] = FP, run 2, individual panel run IC50

Chain of Neuropilin-1 (Homo sapiens) (O14786 whole entry, looked up): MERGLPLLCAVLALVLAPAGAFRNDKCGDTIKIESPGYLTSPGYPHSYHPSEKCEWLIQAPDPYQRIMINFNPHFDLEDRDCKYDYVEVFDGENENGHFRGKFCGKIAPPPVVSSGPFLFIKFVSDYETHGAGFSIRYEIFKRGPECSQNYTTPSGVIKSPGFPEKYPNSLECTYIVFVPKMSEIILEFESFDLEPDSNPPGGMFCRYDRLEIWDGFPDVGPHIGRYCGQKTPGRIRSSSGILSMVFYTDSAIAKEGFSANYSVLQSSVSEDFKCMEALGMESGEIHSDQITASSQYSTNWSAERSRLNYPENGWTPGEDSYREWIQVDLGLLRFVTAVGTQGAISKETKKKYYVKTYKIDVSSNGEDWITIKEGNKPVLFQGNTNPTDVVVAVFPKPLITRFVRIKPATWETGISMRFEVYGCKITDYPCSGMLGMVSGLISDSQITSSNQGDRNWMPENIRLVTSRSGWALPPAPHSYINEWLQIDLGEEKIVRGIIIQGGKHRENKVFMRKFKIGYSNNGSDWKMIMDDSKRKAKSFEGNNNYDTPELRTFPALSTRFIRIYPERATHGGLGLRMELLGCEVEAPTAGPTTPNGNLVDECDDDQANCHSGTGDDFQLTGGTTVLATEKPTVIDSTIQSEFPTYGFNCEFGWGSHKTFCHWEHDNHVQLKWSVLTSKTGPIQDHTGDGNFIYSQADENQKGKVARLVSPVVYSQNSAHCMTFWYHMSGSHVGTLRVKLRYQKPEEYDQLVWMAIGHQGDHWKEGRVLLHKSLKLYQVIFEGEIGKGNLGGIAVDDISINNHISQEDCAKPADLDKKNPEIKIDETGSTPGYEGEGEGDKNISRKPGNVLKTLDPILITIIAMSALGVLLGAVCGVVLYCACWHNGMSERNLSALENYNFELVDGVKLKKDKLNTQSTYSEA

SMILES | IC50 (AlphaScreen, mean of runs) | IC50 [1] [µM] | IC50 (FP, mean of runs) | IC50 [2] [µM] | IC50 [3] [µM]
CCCCC1CCC(C(=O)NC2CCS(=O)(=O)C2)CC1 (stereo not given) | > 100 µM (inactive) | > 100 | > 95 µM (inactive) | > 95 | > 95
C=C1CCN([C@@H](CC(C)C)C(=O)NCCC(C)C)S(=O)(=O)c2ccccc21 | > 100 µM (inactive) | > 100 | > 95 µM (inactive) | > 95 | > 95
CCC1C2Cc3ccc(O)cc3C1(CC)CCN2C (stereo not given) | > 100 µM (inactive) | > 100 | > 95 µM (inactive) | > 95 | > 95
O=C(NCCN1CCOCC1)c1cc(-c2ccc(F)cc2)on1 | > 100 µM (inactive) | > 100 | > 95 µM (inactive) | > 95 | > 95
CCOC(=O)CNc1ccc2c(c1)OCO2 | inactive | 27.8 | inactive | > 95 | 38.7
Cc1ccc(C)c(-n2c(SCC(=O)NC(C(=O)O)C(C)C)nnc2-c2cccc(Cl)c2)c1 (stereo not given) | > 100 µM (inactive) | > 100 | > 95 µM (inactive) | > 95 | > 95
Cc1ccc(C(=O)NCCCc2ccccc2)c(C)c1 | > 100 µM (inactive) | > 100 | > 95 µM (inactive) | > 95 | > 95
O=c1ccsn1Cc1ccccc1 | > 100 µM (inactive) | > 100 | > 95 µM (inactive) | > 95 | > 95
N#Cc1ccc(COC(=O)c2cnc(Cl)c(Cl)c2)cc1 | > 100 µM (inactive) | > 100 | > 95 µM (inactive) | > 95 | > 95
O=C(NCCCN1CCCC(O)C1)c1cc(COc2ccc(F)cc2F)on1 (stereo not given) | > 100 µM (inactive) | > 100 | > 95 µM (inactive) | > 95 | > 95
CN(C)/C=C/c1c([N+](=O)[O-])c2ccc(O)cc2n1-c1ccccc1 | > 100 µM (inactive) | > 100 | > 95 µM (inactive) | > 95 | > 95
Cc1cc2c(cc1C)NC(c1nc3ccccc3[nH]1)C1=C(CC(C)(C)CC1=O)N2 (stereo not given) | > 100 µM (inactive) | > 100 | > 95 µM (inactive) | > 95 | > 95
CC(=O)NCCNc1nc(NC(C)C)nc2ccsc12 | > 100 µM (inactive) | > 100 | > 95 µM (inactive) | > 95 | > 95
Cc1ccc(COn2c(-c3ccc(Cl)cc3Cl)nc3ncccc32)cc1 | > 100 µM (inactive) | > 100 | > 95 µM (inactive) | > 95 | > 95
Cc1cc(=O)n2nc(N3CCCC(C(=O)N4CCOCC4)C3)sc2n1 (stereo not given) | > 100 µM (inactive) | > 100 | > 95 µM (inactive) | > 95 | > 95
COC(=O)[C@@]1(Cc2ccc(OC)cc2)[C@H]2c3cc(C(=O)N4CCCC4)n(CCN4CCOCC4)c3C[C@H]2CN1C(=O)c1ccccc1 | > 100 µM (inactive) | > 100 | > 95 µM (inactive) | > 95 | > 95
COc1ccc(N=C2C(=Nc3ccc(OC)cc3)N(c3ccc(N(C)C)cc3)C(=S)N2c2ccc(OC)cc2)cc1 | > 100 µM (inactive) | > 100 | > 95 µM (inactive) | > 95 | > 95
Cc1c(CC(=O)O)c(=O)oc2cc(OCc3ccc(F)cc3Cl)ccc12 | > 100 µM (inactive) | > 100 | > 95 µM (inactive) | > 95 | > 95
CC(C)C1=C2CCCCC2NC(=O)N1 (stereo not given) | > 100 µM (inactive) | > 100 | > 95 µM (inactive) | > 95 | > 95
CCCCCCCN1C(Nc2ccccc2)=NC[C@@H]1Cc1ccccc1 | > 100 µM (inactive) | > 100 | > 95 µM (inactive) | > 95 | > 95
Cc1cc(NC(=O)CCC(=O)NNC(=O)c2ccc(C(C)(C)C)cc2)no1 | 8.63 µM | 8.63 | > 95 µM (inactive) | > 95 | > 95
Cc1ccc(Cl)c(NC(=O)CSc2cccc[n+]2[O-])c1Cl | > 100 µM (inactive) | > 100 | > 95 µM (inactive) | > 95 | > 95
COC(=O)C1=C(c2ccc(F)cc2OCc2ccccc2)C[C@@H]2CC[C@H]1N2C(=O)NCCNC(C)=O | 9.37 µM | 9.37 | > 95 µM (inactive) | > 95 | > 95

SMILES | IC50 (AlphaScreen, mean of runs) | IC50 [1] [µM] | IC50 (FP, mean of runs) | IC50 [2] [µM] | IC50 [3] [µM]
CC(C)(C)n1cnc2cc(NC(=O)c3ccccc3)ccc21 | 17 µM | 17 | > 95 µM (inactive) | > 95 | > 95
C=CCNC(=O)c1onc(CSc2ccc(F)c(F)c2)c1C(=O)NCC=C | > 100 µM (inactive) | > 100 | > 95 µM (inactive) | > 95 | > 95
Cc1cc(S(=O)(=O)NC2CCCCC2)ccc1OCC(=O)N1CCOCC1 | 15.2 µM | 15.2 | > 95 µM (inactive) | > 95 | > 95
Cc1ccc(C(=O)O)cc1NC(=O)Nc1cccc2ccccc12 | > 100 µM (inactive) | > 100 | > 95 µM (inactive) | > 95 | > 95
COc1ccc(OCC(=O)O/N=C(\N)Cc2ccc(Cl)cc2Cl)cc1 | inactive | 55.3 | > 95 µM (inactive) | > 95 | > 95
CCOc1cc(C(=O)NCCN2CCOCC2)cc(OCC)c1OCC | > 100 µM (inactive) | > 100 | > 95 µM (inactive) | > 95 | > 95
CC(Nc1ccc2ccccc2c1)C(=O)N/N=C/c1ccncc1 (stereo not given) | > 100 µM (inactive) | > 100 | > 95 µM (inactive) | > 95 | > 95
COc1ccc(/C=N/NC(=O)c2ccccc2Cl)cc1CSc1nc2ccccc2s1 | > 100 µM (inactive) | > 100 | > 95 µM (inactive) | > 95 | > 95
Nc1ncnc2[nH]c(=S)[nH]c12 | > 100 µM (inactive) | > 100 | > 95 µM (inactive) | > 95 | > 95
CC(O)(c1cccnc1)c1nc(/C=C/c2ccccc2)cs1 (stereo not given) | > 100 µM (inactive) | > 100 | > 95 µM (inactive) | > 95 | > 95
CC(Nc1nc(-c2ccc(F)cc2)cs1)c1nc2cc(C(F)(F)F)ccc2n1CCOCCO (stereo not given) | > 100 µM (inactive) | > 100 | > 95 µM (inactive) | > 95 | > 95
O=C(CCn1c(=O)c2cccn2c2cccnc21)NCc1cccc(Cl)c1 | > 100 µM (inactive) | > 100 | > 95 µM (inactive) | > 95 | > 95
COC(=O)Cc1ccc(NC(=S)NCCCO)cc1 | > 100 µM (inactive) | > 100 | > 95 µM (inactive) | > 95 | > 95
CC(C)NC(=O)c1c(CSc2ccccc2)noc1C(=O)NCc1ccccc1 | > 100 µM (inactive) | > 100 | > 95 µM (inactive) | > 95 | > 95
CC(C)Oc1ccc(F)cc1-c1cc(C(=O)NCc2ccc(F)cc2)[nH]n1 | > 100 µM (inactive) | > 100 | > 95 µM (inactive) | > 95 | > 95
CCCCn1nnnc1C(c1cc2ccccc2o1)N(C)Cc1ccc(Cl)c(Cl)c1 (stereo not given) | 12.7 µM | 12.7 | > 95 µM (inactive) | > 95 | > 95
CC(C)(C)OC(=O)NCc1ccc(CNC(=O)c2nc[nH]c2C(=O)N2CCN(C(=O)OC(C)(C)C)CC2)cc1 | > 100 µM (inactive) | > 100 | > 95 µM (inactive) | > 95 | > 95
CC(C)C(N)c1csc(NC(=O)Nc2cccc(C(F)(F)F)c2)n1 (stereo not given) | > 100 µM (inactive) | > 100 | > 95 µM (inactive) | > 95 | > 95
CC(C)OC(=O)CSc1nnc(-c2ccccn2)n1-c1ccccc1 | > 100 µM (inactive) | > 100 | > 95 µM (inactive) | > 95 | > 95
Cc1ccc(CN(CC(=O)NC2CCCCC2)C(=O)c2csnn2)cc1 | > 100 µM (inactive) | > 100 | > 95 µM (inactive) | > 95 | > 95
O=C(Nc1cc(C(F)(F)F)ccc1N1CCCC1)C1CC(=O)N(Cc2ccccc2)C1 (stereo not given) | > 100 µM (inactive) | > 100 | > 95 µM (inactive) | > 95 | > 95
CC(=O)c1ccc(OCC(=O)Nc2nnc(C3CC3)s2)cc1 | > 100 µM (inactive) | > 100 | > 95 µM (inactive) | > 95 | > 95
